In ChEMBL document CHEMBL1201862, “PubChem BioAssay data set” (2004):
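Five compound concentrations were applied to cells in 96-well plates for 48 hours; endpoints were derived by simple linear interpolation of the resulting dose-response curve. At the GI50, growth is halved.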 Active and inactive are the calls of the source. Rule as the data show it: active = GI50 up to about 1.1 µM and inactive = higher.

Key:
Assay in all cases: NCI-60 cell line screen, 48 h
COLO 205 = test system: COLO 205
CAKI-1 = test system: CAKI-1
UO-31 = test system: UO-31
SNB-75 = test system: SNB-75
MOLT-4 = test system: MOLT-4
HCT-116 = test system: HCT-116
A498 = test system: A498
MCF7 = test system: MCF7
SR = test system: SR
SK-OV-3 = test system: SK-OV-3
SN12C = test system: SN12C
TK-10 = test system: TK-10
HCC 2998 = test system: HCC 2998
786-0 = test system: 786-0
NCI-H226 = test system: NCI-H226
OVCAR-4 = test system: OVCAR-4
NCI-H23 = test system: NCI-H23
KM12 = test system: KM12
SW-620 = test system: SW-620
OVCAR-5 = test system: OVCAR-5

Measured: GI50

C/C(=N\NC(=O)c1ccncc1)c1ccc2ccccc2c1O
active: COLO 205 0.561 µM | UO-31 0.838 µM | MOLT-4 0.513 µM | HCT-116 0.608 µM | SR 0.303 µM | 786-0 0.548 µM | OVCAR-4 0.966 µM
inactive: CAKI-1 2.25 µM | SNB-75 3.66 µM | A498 11.2 µM | MCF7 1.35 µM | SK-OV-3 4.47 µM | SN12C 1.62 µM | TK-10 4.63 µM | HCC 2998 2.9 µM | NCI-H226 1.77 µM | NCI-H23 3.82 µM | KM12 2.31 µM | SW-620 3.12 µM | OVCAR-5 6.12 µM

N#Cc1ccsc1Nc1ccccc1[N+](=O)[O-]
inactive: COLO 205 > 100 µM | CAKI-1 > 100 µM | UO-31 > 100 µM | SNB-75 > 100 µM | MOLT-4 > 100 µM | HCT-116 > 100 µM | A498 > 100 µM | MCF7 > 100 µM | SR > 100 µM | SK-OV-3 > 100 µM | SN12C > 100 µM | HCC 2998 > 100 µM | 786-0 > 100 µM | NCI-H226 > 100 µM | OVCAR-4 > 100 µM | NCI-H23 > 100 µM | KM12 > 100 µM | SW-620 > 100 µM | OVCAR-5 > 100 µM

COc1ccc(/C=C2/SC(c3c(O)ccc4ccccc34)N(NC(=O)CCCCCCCCC(=O)NN3C(=O)/C(=C\c4ccc(OC)c(OC)c4)SC3c3c(O)ccc4ccccc34)C2=O)cc1OC (stereo not given)
active: UO-31 0.486 µM | MOLT-4 0.176 µM | HCT-116 0.345 µM | SR 0.0962 µM | 786-0 0.519 µM | NCI-H226 0.855 µM
inactive: COLO 205 3.15 µM | CAKI-1 1.22 µM | SNB-75 8.53 µM | A498 7.6 µM | MCF7 1.71 µM | SK-OV-3 2.24 µM | SN12C 3.94 µM | TK-10 10.4 µM | HCC 2998 5.25 µM | OVCAR-4 1.64 µM | NCI-H23 2.22 µM | KM12 5.16 µM | SW-620 1.53 µM | OVCAR-5 21.5 µM

Cc1ccc(C(=O)N/N=C2/C(=O)c3c4ccccc4cc4cccc2c34)cc1
inactive: COLO 205 31.3 µM | CAKI-1 25.4 µM | UO-31 17.2 µM | SNB-75 26.7 µM | HCT-116 4.78 µM | A498 > 100 µM | MCF7 2.3 µM | SR 1.99 µM | SK-OV-3 23.7 µM | SN12C 21.8 µM | TK-10 25.2 µM | HCC 2998 38.8 µM | 786-0 14.2 µM | NCI-H226 > 69.3 µM | OVCAR-4 18.2 µM | NCI-H23 24.6 µM | KM12 3.89 µM | SW-620 8.71 µM | OVCAR-5 > 70 µM

O=c1cc(-c2ccccc2)nc2[nH]ccn12
inactive: COLO 205 > 10 µM | CAKI-1 > 10 µM | UO-31 7.87 µM | SNB-75 6.25 µM | MOLT-4 > 10 µM | HCT-116 > 10 µM | A498 > 10 µM | MCF7 > 10 µM | SR > 10 µM | SK-OV-3 > 10 µM | SN12C > 10 µM | TK-10 > 10 µM | HCC 2998 > 10 µM | NCI-H226 > 10 µM | OVCAR-4 > 10 µM | NCI-H23 > 10 µM | KM12 > 10 µM | SW-620 > 10 µM | OVCAR-5 > 10 µM

O=C(c1ccc2ccccc2c1O)N1CCCCC1
inactive: COLO 205 > 100 µM | CAKI-1 > 100 µM | UO-31 > 100 µM | SNB-75 > 100 µM | MOLT-4 23.2 µM | HCT-116 65.8 µM | A498 > 100 µM | MCF7 > 100 µM | SR > 10 µM | SK-OV-3 > 100 µM | TK-10 > 100 µM | HCC 2998 > 100 µM | 786-0 > 100 µM | NCI-H226 > 100 µM | OVCAR-4 > 100 µM | NCI-H23 32.4 µM | KM12 > 100 µM | SW-620 > 100 µM

Nc1ccc(C2NC(=O)Cc3c2ccc2ccccc32)cc1 (stereo not given)
inactive: COLO 205 76.2 µM | CAKI-1 79.4 µM | UO-31 32.1 µM | SNB-75 > 100 µM | MOLT-4 > 100 µM | HCT-116 81.1 µM | A498 > 100 µM | MCF7 76 µM | SR > 100 µM | SK-OV-3 > 100 µM | TK-10 > 100 µM | HCC 2998 69 µM | NCI-H226 34.4 µM | OVCAR-4 40.3 µM | NCI-H23 > 100 µM | KM12 > 100 µM | SW-620 > 100 µM | OVCAR-5 > 100 µM

O=C(C/C=C/c1ccccc1)c1ccccc1
inactive: COLO 205 22.5 µM | CAKI-1 17 µM | UO-31 14.1 µM | SNB-75 20.6 µM | MOLT-4 20.8 µM | HCT-116 17.4 µM | A498 15.7 µM | MCF7 15 µM | SR 12.4 µM | SK-OV-3 49.5 µM | SN12C 24.3 µM | TK-10 23.2 µM | HCC 2998 18.3 µM | 786-0 21.6 µM | NCI-H226 29.5 µM | NCI-H23 15.1 µM | KM12 11.1 µM | SW-620 31.2 µM | OVCAR-5 28.6 µM

CCC(C)[C@H]1C(=O)N=C(N)N1C(=O)OCc1ccccc1 (stereo not given in full)
inactive: COLO 205 > 100 µM | CAKI-1 > 100 µM | UO-31 78 µM | SNB-75 > 100 µM | MOLT-4 > 100 µM | HCT-116 > 100 µM | A498 > 100 µM | MCF7 > 100 µM | SR > 100 µM | SN12C > 100 µM | TK-10 > 100 µM | HCC 2998 > 100 µM | 786-0 > 100 µM | NCI-H226 > 100 µM | OVCAR-4 > 100 µM | NCI-H23 > 100 µM | KM12 > 100 µM | SW-620 > 100 µM | OVCAR-5 > 100 µM

COc1cc(-c2cc(-c3ccccc3)nc(-c3c(OC)ccc4c(C)cc(=O)oc34)c2)cc(OC)c1OC
inactive: COLO 205 > 100 µM | CAKI-1 > 100 µM | UO-31 > 100 µM | SNB-75 > 100 µM | MOLT-4 > 100 µM | HCT-116 > 100 µM | A498 > 100 µM | MCF7 74.1 µM | SR > 100 µM | SK-OV-3 > 100 µM | SN12C > 100 µM | TK-10 > 100 µM | HCC 2998 > 100 µM | 786-0 > 100 µM | NCI-H226 > 100 µM | OVCAR-4 > 100 µM | NCI-H23 > 100 µM | KM12 > 100 µM | SW-620 > 100 µM

O=C1CCCSC(=O)N1Cc1ccccc1
active: SNB-75 0.0515 µM
inactive: COLO 205 > 100 µM | CAKI-1 > 100 µM | MOLT-4 > 100 µM | HCT-116 > 100 µM | A498 > 100 µM | MCF7 > 100 µM | SR > 100 µM | SK-OV-3 > 100 µM | SN12C > 100 µM | TK-10 > 100 µM | HCC 2998 > 100 µM | 786-0 > 100 µM | NCI-H226 > 100 µM | OVCAR-4 > 100 µM | NCI-H23 > 100 µM | KM12 > 100 µM | SW-620 > 100 µM | OVCAR-5 > 100 µM

COc1cc(C=O)cc(/C=N/c2ccc(Br)cc2)c1O
inactive: COLO 205 4.09 µM | CAKI-1 2.93 µM | UO-31 3.2 µM | SNB-75 23.8 µM | MOLT-4 22 µM | HCT-116 6.79 µM | A498 16.4 µM | MCF7 4.47 µM | SR 2.68 µM | SK-OV-3 2.17 µM | SN12C 4.13 µM | TK-10 32.4 µM | HCC 2998 14.1 µM | NCI-H226 2.59 µM | OVCAR-4 22.5 µM | NCI-H23 17.7 µM | KM12 10.2 µM | SW-620 1.25 µM | OVCAR-5 24.5 µM

Cc1cc2nc3ccccc3n2c2nc(N)ccc12
inactive: COLO 205 32.9 µM | CAKI-1 20.9 µM | UO-31 16.3 µM | SNB-75 > 100 µM | MOLT-4 17.7 µM | HCT-116 14.8 µM | A498 46.1 µM | MCF7 44 µM | SR 13.5 µM | SN12C 51.2 µM | TK-10 55.8 µM | HCC 2998 39.6 µM | 786-0 16.7 µM | NCI-H226 27.2 µM | OVCAR-4 44.9 µM | NCI-H23 43 µM | KM12 33 µM | SW-620 25.4 µM | OVCAR-5 61.2 µM

COc1ccc(C(C2=C(O)COC2=O)c2cc3c(cc2O)OCO3)cc1OC (stereo not given)
inactive: COLO 205 > 100 µM | CAKI-1 > 100 µM | UO-31 > 100 µM | SNB-75 > 100 µM | MOLT-4 > 100 µM | HCT-116 > 100 µM | A498 > 100 µM | MCF7 > 100 µM | SR > 100 µM | SK-OV-3 > 100 µM | SN12C > 100 µM | TK-10 > 100 µM | HCC 2998 > 100 µM | 786-0 > 100 µM | NCI-H226 > 100 µM | OVCAR-4 > 100 µM | KM12 > 100 µM | SW-620 > 100 µM | OVCAR-5 > 100 µM

O=C1c2cc3c(cc2CC12Cc1cc4c(cc1C2)CCC4)CCC3
inactive: COLO 205 > 100 µM | CAKI-1 > 100 µM | UO-31 > 100 µM | SNB-75 > 100 µM | MOLT-4 49 µM | HCT-116 > 100 µM | A498 > 100 µM | MCF7 > 100 µM | SR > 100 µM | SK-OV-3 > 100 µM | SN12C > 100 µM | TK-10 > 100 µM | HCC 2998 > 100 µM | 786-0 > 100 µM | OVCAR-4 > 100 µM | NCI-H23 > 100 µM | KM12 > 100 µM | SW-620 > 100 µM | OVCAR-5 > 100 µM
